Reference: patent EP4703365A1, “QUINOLONE DERIVATIVE AND USE THEREOF AGAINST TUMORS” (Horizon Omics Biotech Limited, priority 2023, dated 2024)
pIC50: −log10 of the molar value.

What was measured:
MDA-MB-436 = assay: Cell activity assay (CellTiterGlo, 6 days), BRCA1 gene-deficient MDA-MB-436 cells; format: cell-based; conditions: Homo sapiens, 144 h, BRCA1 gene-deficient MDA-MB-436, 6 days incubation
Experimental: (§1) • (1) Compound Treatment • a) Preparation of Stock Solutions of Compounds Test compounds were dissolved in DMSO at a concentration of 10 mM or 5 mM, and Olaparib was dissolved in DMSO at a concentration of 10 mM. • b) Compound Storage All compounds dissolved in DMSO were stored in a desiccator at room temperature for short-term storage and transferred to a -20°C refrigerator for long-term storage. • c) Preparation of Working Concentrations of Compounds
(§2) Test compounds were serially diluted in DMSO at a 3-fold gradient to prepare 10 concentration gradients, starting from 10 µM.
(§3) Olaparib was serially diluted in DMSO at a 3-fold gradient to prepare 10 concentration gradients, starting from 10 µM.
(§4) The 384-well plate loaded with the compounds was centrifuged at 1000 rpm for 1 minute.
(§5) • a) Cells were added to the culture medium and incubated in a cell culture incubator at 37°C with 5% CO2. • b) 40 µL of BRCA1- or BRCA2-deficient cells were added to a 384-well plate and incubated overnight at 37°C with 5% CO2. • c) The test compounds were prepared at different concentration gradients on the master plate, and 80 nL of the test compounds and Olaparib were taken from the master plate and added to the 384-well plate containing cells, and incubated at 37°C with 5% CO2 for 6 days. • d) CellTiterGlo (30 µL per well) was added to the 384-well plate, and after incubation at room temperature in the dark for 30 minutes, measurement was performed using an Envision plate reader.
(§6) • a) GraphPad Prism software was used to calculate the ICso and plot the activity curves as a function of concentration. • b) The inhibition of cell activity by the compounds was calculated using the following formula: % Inhibition = [1−(Cmpd−Blank)/(DMSO−Blank)]* 100 [formula]

hERG = hERG (Homo sapiens, UniProt Q12809); assay: hERG cardiotoxicity assay (patch clamp, hERG stably expressed HEK 293 cell line); format: cell-based; conditions: 5 doses applied cumulatively
Chain of hERG (Q12809 whole entry): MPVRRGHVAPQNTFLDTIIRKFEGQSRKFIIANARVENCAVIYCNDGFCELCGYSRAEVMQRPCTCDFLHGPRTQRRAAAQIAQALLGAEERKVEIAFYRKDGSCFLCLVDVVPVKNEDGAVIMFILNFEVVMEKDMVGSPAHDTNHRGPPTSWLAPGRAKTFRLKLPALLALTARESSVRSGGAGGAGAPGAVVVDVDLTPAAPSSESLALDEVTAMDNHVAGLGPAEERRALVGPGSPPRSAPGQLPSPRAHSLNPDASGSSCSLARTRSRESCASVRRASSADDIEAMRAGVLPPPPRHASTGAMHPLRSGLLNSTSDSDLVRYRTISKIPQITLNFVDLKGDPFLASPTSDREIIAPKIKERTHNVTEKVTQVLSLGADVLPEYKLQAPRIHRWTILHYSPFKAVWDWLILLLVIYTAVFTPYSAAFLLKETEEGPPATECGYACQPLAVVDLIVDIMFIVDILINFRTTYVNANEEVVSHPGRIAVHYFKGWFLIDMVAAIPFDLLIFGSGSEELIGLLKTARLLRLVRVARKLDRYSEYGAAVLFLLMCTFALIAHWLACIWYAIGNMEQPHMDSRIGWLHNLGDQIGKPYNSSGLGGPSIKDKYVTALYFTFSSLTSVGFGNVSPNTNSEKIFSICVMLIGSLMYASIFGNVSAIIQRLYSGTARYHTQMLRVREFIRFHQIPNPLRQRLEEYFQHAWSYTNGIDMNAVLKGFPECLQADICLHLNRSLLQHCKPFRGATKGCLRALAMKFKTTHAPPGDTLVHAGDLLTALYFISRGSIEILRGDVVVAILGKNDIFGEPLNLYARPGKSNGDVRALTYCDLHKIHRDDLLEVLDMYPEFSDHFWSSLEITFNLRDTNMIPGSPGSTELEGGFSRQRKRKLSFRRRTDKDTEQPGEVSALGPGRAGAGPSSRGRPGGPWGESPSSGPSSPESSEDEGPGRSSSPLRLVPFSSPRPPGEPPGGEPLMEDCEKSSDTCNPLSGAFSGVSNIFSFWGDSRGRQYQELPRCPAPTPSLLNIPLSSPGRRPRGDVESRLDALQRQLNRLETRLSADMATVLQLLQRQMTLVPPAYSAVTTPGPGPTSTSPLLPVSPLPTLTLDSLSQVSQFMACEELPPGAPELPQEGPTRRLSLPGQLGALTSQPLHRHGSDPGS
Experimental: • 1) The hERG stably expressed HEK 293 cell line (Cat# K1236) was purchased from Invitrogen. Cells were cultured in a medium consisting of 85% DMEM, 10% FBS, 0.1 mM NEAA, 25 mM HEPES, 100 U/mL penicillin-streptomycin, 5 µg/mL Blasticidin, and 400 µg/mL Geneticin. Cells were passaged approximately three times a week using TrypLE™ Express and maintained at ~40% to ~80% confluency. Before assay, cells were placed on coverslips with 5×10^5 cells per 6-cm cell culture dish and induced with 1 µg/mL doxycycline for 48 hours. • 2) The coverslip was removed from the cell culture dish and placed on the microscope stage. A suitable cell was located using a 10× objective. The tip of the electrode was located under the microscope using the 10× objective, and the focus was adjusted to the plane of the cell. Once the tip was in focus, the coarse control of the manipulator was used to advance the electrode downward toward the cell while moving the objective to keep the tip in focus. When directly above the cell, the objective was switched to 40× objective, and the fine control of the manipulator was used to approach the cell surface in small steps. • 3) A blank control was first performed to establish a baseline. […] In the presence of the test compounds, the hERG current was recorded for approximately 5 minutes to reach a steady state, followed by capturing 5 scans. For dose-response testing, 5 doses of the test compounds were cumulatively applied to the cells from low to high concentrations. The positive control, dofetilide at a concentration of 150 nM, was applied to each cell, and the hERG current was measured in the test compounds at the highest concentration as a negative control to normalize the percentage of inhibition. To ensure good performance of the cultured cells and operations, cells from the same batch were also tested with 5 doses of dofetilide. Table 4. hERG Toxicity Assay Results

solid tumors = conditions: NCT02719977, solid tumors in humans; cited from earlier work
DLD1 BRCA2^-/- = assay: Cell activity assay (CellTiterGlo, 6 days), BRCA2 gene knockout DLD1 cancer cells; format: cell-based; conditions: Homo sapiens, DLD-1, 144 h, 6 days incubation
Experimental: as §1, §2, §3, §4, §5, §6

UWB1.289 Cells = assay: Cell activity assay (CellTiterGlo, 6 days), BRCA1 gene-deficient ovarian cancer cells UWB1.289; format: cell-based; conditions: UWB1289, 144 h, BRCA1 gene-deficient ovarian cancer cells UWB1.289, 6 days incubation
Experimental: as §1, §2, §3, §4, §5, §6

Row | IC50 (MDA-MB-436) | IC50 (DLD1 BRCA2^-/-) | IC50 (UWB1.289 Cells) | Structure (SMILES) | pIC50 (hERG) | adverse effects observed (solid tumors)
1 | 10 nM | – | – | Cc1cnc(CNC(=O)c2c(=O)c3ccc(N4CCCN(C)CC4)nc3n3c2sc2ccccc23)cn1 [CX-5461] | 5.30 | phototoxicity, neutropenia, acral erythema, and nausea
2 | 7.7 nM | 11 nM | 39.8 nM | CNC(=O)c1c(=O)c2ccc(N3CCCN(C)CC3)nc2n2c1sc1ccccc12 [Compound E] | – | –
3 | – | 32.7 nM | 40.4 nM | CN1CCCN(c2ccc3c(=O)c(C(=O)NCc4ccc(=O)[nH]n4)c4sc5ccccc5n4c3n2)CC1 [Compound G-1] | < 4.52 | –

The next lines start with the compound.

Row | Structure (SMILES) | IC50 (MDA-MB-436) | IC50 (DLD1 BRCA2^-/-) | IC50 (UWB1.289 Cells) | pIC50 (hERG) | adverse effects observed (solid tumors)
4 | CN1CCCN(c2ccc3c(=O)c(C(=O)NCCN4CCC4)c4sc5ccccc5n4c3n2)CC1 [Compound C] | – | 4.8 nM | 4.9 nM | – | –
5 | CN1CCCN(c2ccc3c(=O)c(C(=O)NCCN4CCCC4)c4sc5ccccc5n4c3n2)CC1 [Compound D] | – | 4.3 nM | 5.8 nM | – | –
6 | CN1CCCN(c2ccc3c(=O)c(C(=O)NC4CC4)c4sc5ccccc5n4c3n2)CC1 [Compound F] | – | 17.2 nM | 40.6 nM | – | –
7 | CN1CCCN(c2ccc3c(=O)c(C(=O)NCc4n[nH]c(=O)c5ccccc45)c4sc5ccccc5n4c3n2)CC1 [Compound G-2] | – | – | – | < 5.00 | –
8 | O=C(c1cc(Cc2n[nH]c(=O)c3ccccc23)ccc1F)N1CCN(C(=O)C2CC2)CC1 [Olaparib, reference compound] | 240 nM | – | 716 nM | – | –
